Experiments:
[1] = test system: recombinant NL4-3 virus (nef section replaced with Renilla luciferase gene) in MT-2 cells; assay: HIV cell culture assay (antiviral activity, luciferase readout); type: cell-based; details: Renilla, NL43, MT-2 cells infected for 4-5 days with recombinant NL4-3 Renilla luciferase virus
In short: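 MT-2 cells were infected for 4-5 days with reporter virus made by transfecting the recombinant NL4-3 proviral clone into 293T cells, in the presence of serial compound dilutions. Luciferase activity was read with a live-cell substrate. EC50 came from the exponential median effect equation, (Fa)=1/[1+(ED50/drug conc.)m].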

[2] = Compound cytotoxicity, XTT-based colorimetric assay; type: cell-based; details: human; uninfected MT2 cells, day 4, XTT; read-out: CC50
In short: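 Uninfected MT2 cells were treated with compound under the same protocol as the antiviral assay. Viability was read on day 4 with an XTT colorimetric assay, from which CC50 values were derived.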

Structure (SMILES)	EC50 [1]	CC50 at 4 days [2]
CS(=O)(=O)Nc1nn(CCN2CC(C(F)F)C2)c2c(-n3c([C@H](Cc4cc(F)cc(F)c4)NC(=O)Cn4nc(C(F)F)c5c4C(F)(F)[C@@H]4C[C@H]54)nc4nc(C5CCC(F)(F)CC5)cc(C(F)F)c4c3=O)ccc(Cl)c12 (atropisomer, axis not shown; (P)) [Example 315, N-[(1S)-1-[(3P)-3-(4-chloro-1-{2-[3-(difluoromethyl)azetidin-1-yl]ethyl}-3-methanesulfonamido-1H-indazol-7-yl)-7-(4,4-difluorocyclohexyl)-5-(difluoromethyl)-4-oxo-3H,4H-pyrido[2,3-d]pyrimidin-2-yl]-2-(3,5-difluorophenyl)ethyl]-2-[(2S,4R)-9-(difluoromethyl)-5,5-difluoro-7,8-diazatricyclo[4.3.0.0^2,^4]nona-1(6),8-dien-7-yl]acetamide]	0.025 nM	> 50 nM
Cc1cc(C2CCC(F)(F)CC2)nc2nc([C@H](Cc3cc(F)cc(F)c3)NC(=O)Cn3nc(C4CC4)c4c3C[C@@H]3C[C@H]43)n(-c3ccc(Cl)c4c(NS(C)(=O)=O)nn(CCN5CCC(C)(F)C5)c34)c(=O)c12 (stereo partly drawn) [Example 280, N-[(1S)-1-[(3P)-3-{4-chloro-1-[2-(3-fluoro-3-methylpyrrolidin-1-yl)ethyl]-3-methanesulfonamido-1H-indazol-7-yl}-7-(4,4-difluorocyclohexyl)-5-methyl-4-oxo-3H,4H-pyrido[2,3-d]pyrimidin-2-yl]-2-(3,5-difluorophenyl)ethyl]-2-[(2S,4S)-9-cyclopropyl-7,8-diazatricyclo[4.3.0.0^2,^4]nona-1(6),8-dien-7-yl]acetamide]	0.006 nM	> 50 nM
Cc1cc(C2CCC(F)(F)CC2)nc2nc([C@H](Cc3cc(F)cc(F)c3)NC(=O)Cn3nc(C4CC4)c4c3C[C@@H]3C[C@H]43)n(-c3ccc(Cl)c4c(NS(C)(=O)=O)nn([C@H](C)CN5CC(C)(C)OC(C)(C)C5)c34)c(=O)c12 (relative stereo) [Example 734, N-[(1S)-1-[(3P)-3-{4-chloro-3-methanesulfonamido-1-[(2R)-1-(2,2,6,6-tetramethylmorpholin-4-yl)propan-2-yl]-1H-indazol-7-yl}-7-(4,4-difluorocyclohexyl)-5-methyl-4-oxo-3H,4H-pyrido[2,3-d]pyrimidin-2-yl]-2-(3,5-difluorophenyl)ethyl]-2-[(2R*,4R*)-9-cyclopropyl-7,8-diazatricyclo[4.3.0.0^2,^4]nona-1(6),8-dien-7-yl]acetamide]	0.038 nM	> 20 nM
Cc1cc(C2CCC(F)(F)CC2)nc2nc([C@H](Cc3cc(F)cc(F)c3)NC(=O)Cn3nc(C4CC4)c4c3C[C@@H]3C[C@H]43)n(-c3ccc(Cl)c4c(NS(C)(=O)=O)nn(CCN5CCC(F)(F)C5)c34)c(=O)c12 (atropisomer, axis not shown; (P)) [Example 232, N-[(1S)-1-[(3P)-3-{4-chloro-1-[2-(3,3-difluoropyrrolidin-1-yl)ethyl]-3-methanesulfonamido-1H-indazol-7-yl}-7-(4,4-difluorocyclohexyl)-5-methyl-4-oxo-3H,4H-pyrido[2,3-d]pyrimidin-2-yl]-2-(3,5-difluorophenyl)ethyl]-2-[(2S,4S)-9-cyclopropyl-7,8-diazatricyclo[4.3.0.0^2,^4]nona-1(6),8-dien-7-yl]acetamide]	0.009 nM	> 50 nM
CCc1cc(C2CCC(F)(F)CC2)nc2nc([C@H](Cc3cc(F)cc(F)c3)NC(=O)Cn3nc(C(F)F)c4c3C(F)(F)[C@@H]3C[C@H]43)n(-c3ccc(Cl)c4c(NS(C)(=O)=O)nn(CCCOC)c34)c(=O)c12 (atropisomer, axis not shown; (P)) [Example 638, N-[(1S)-1-[(3P)-3-[4-chloro-3-methanesulfonamido-1-(3-methoxypropyl)-1H-indazol-7-yl]-7-(4,4-difluorocyclohexyl)-5-ethyl-4-oxo-3H,4H-pyrido[2,3-d]pyrimidin-2-yl]-2-(3,5-difluorophenyl)ethyl]-2-[(2S,4R)-9-(difluoromethyl)-5,5-difluoro-7,8-diazatricyclo[4.3.0.0^2,^4]nona-1(6),8-dien-7-yl]acetamide]	0.018 nM	> 50 nM
Cc1cc(C2(F)CCC(F)(F)CC2)nc2nc([C@H](Cc3cc(F)cc(F)c3)NC(=O)Cn3nc(C4CC4)c4c3C[C@@H]3C[C@H]43)n(-c3ccc(Cl)c4c(NS(C)(=O)=O)nn(CCc5cccnc5)c34)c(=O)c12 (relative stereo) [Example 741, N-[(1S)-1-[(3P)-3-{4-chloro-3-methanesulfonamido-1-[2-(pyridin-3-yl)ethyl]-1H-indazol-7-yl}-5-methyl-4-oxo-7-(1,4,4-trifluorocyclohexyl)-3H,4H-pyrido[2,3-d]pyrimidin-2-yl]-2-(3,5-difluorophenyl)ethyl]-2-[(2R*,4R*)-9-cyclopropyl-7,8-diazatricyclo[4.3.0.0^2,^4]nona-1(6),8-dien-7-yl]acetamide]	0.04 nM	> 20 nM
Cc1cc(C2CCC(F)(F)CC2)nc2nc([C@H](Cc3cc(F)cc(F)c3)NC(=O)Cn3nc(C4CC4)c4c3C[C@@H]3C[C@H]43)n(-c3ccc(Cl)c4c(NS(C)(=O)=O)nn(CCN5C[C@H](F)C[C@H](F)C5)c34)c(=O)c12 (atropisomer, axis not shown; (P)) [Example 1, N-[(1S)-1-[(3P)-3-(4-chloro-1-{2-[(3R,5S)-3,5-difluoropiperidin-1-yl]ethyl}-3-methanesulfonamido-1H-indazol-7-yl)-7-(4,4-difluorocyclohexyl)-5-methyl-4-oxo-3H,4H-pyrido[2,3-d]pyrimidin-2-yl]-2-(3,5-difluorophenyl)ethyl]-2-[(2S,4S)-9-cyclopropyl-7,8-diazatricyclo[4.3.0.0^2,^4]nona-1(6),8-dien-7-yl]acetamide]	0.009 nM	> 50 nM
Cc1cc(C2(F)CCC(F)(F)CC2)nc2nc([C@H](Cc3cc(F)cc(F)c3)NC(=O)Cn3nc(C4CC4)c4c3C[C@@H]3C[C@H]43)n(-c3ccc(Cl)c4c(NS(C)(=O)=O)nn([C@H](C)CN5C[C@@H](C)O[C@@H](C)C5)c34)c(=O)c12 (relative stereo) [Example 730, N-[(1S)-1-[(3P)-3-{4-chloro-1-[(2R)-1-[(2R,6S)-2,6-dimethylmorpholin-4-yl]propan-2-yl]-3-methanesulfonamido-1H-indazol-7-yl}-5-methyl-4-oxo-7-(1,4,4-trifluorocyclohexyl)-3H,4H-pyrido[2,3-d]pyrimidin-2-yl]-2-(3,5-difluorophenyl)ethyl]-2-[(2R*,4R*)-9-cyclopropyl-7,8-diazatricyclo[4.3.0.0^2,^4]nona-1(6),8-dien-7-yl]acetamide]	0.032 nM	> 20 nM
CS(=O)(=O)Nc1nn(CCN2C[C@H](F)C[C@H](F)C2)c2c(-n3c([C@H](Cc4cc(F)cc(F)c4)NC(=O)Cn4nc(C5CC5)c5c4C[C@@H]4C[C@H]54)nc4nc(C5CCC(F)(F)CC5)cc(C(F)F)c4c3=O)ccc(Cl)c12 (atropisomer, axis not shown; (P)) [Example 287, N-[(1S)-1-[(3P)-3-(4-chloro-1-{2-[(3R,5S)-3,5-difluoropiperidin-1-yl]ethyl}-3-methanesulfonamido-1H-indazol-7-yl)-7-(4,4-difluorocyclohexyl)-5-(difluoromethyl)-4-oxo-3H,4H-pyrido[2,3-d]pyrimidin-2-yl]-2-(3,5-difluorophenyl)ethyl]-2-[(2S,4S)-9-cyclopropyl-7,8-diazatricyclo[4.3.0.0^2,^4]nona-1(6),8-dien-7-yl]acetamide]	0.01 nM	> 50 nM
